Measurements taken from PMC9561422 (Clinical and Translational Medicine, 2022).
“Also recorded” adds a separate entry of the source. Where two headings read alike, the source gives them in different places. One block for each substance: values may come before it. Ends that are not written are not given here.

How the values were obtained:
faeces homogenate = conditions: C57BL/6 mice
[1] = colon homogenate (incl. caecum); conditions: C57BL/6 mice
liver homogenate = conditions: C57BL/6 mice
muscle homogenate = conditions: C57BL/6 mice
kidney homogenate = conditions: C57BL/6 mice
C2C12 myoblast = test: Viability assays other than MTT on C2C12 myoblasts; format: cell-based, murine; conditions: 1 µM; trypan blue, Hoechst/PI, LDH release, Bax/Bcl2, Apotox assay
[2] = ex vivo
Experimental: The powdered medium is dissolved in 900 mL water while stirring. To this solution, 0.3790 g CaCl2×2H2O and 2.098 g NaHCO3 are subsequently added while stirring. NaOH or HCl was used to adjust to pH 7.4. This solution is then further diluted to 1000 mL using ultrapure water.
The blood was collected in a 1.5 mL Eppendorf tube after decapitating the mouse. The blood of the 4 mice was pooled and centrifuged for 10 min at 1000 g at 5 °C. The supernatant (serum) was transferred to a 500 µL Eppendorf and was immediately frozen and stored at -35 °C.
The liver (5.0070 g) was collected from four C57BL/6 mice after cervical dislocation. After cleaning and rinsing the organ using ice-cold KH buffer, the liver was cut in little pieces and transferred into a 50 mL tube to which 36 mL ice-cold KH buffer was added. The liver was then homogenized with mixer. After the larger particles were allowed to settle for about 30 minutes at 5 °C, approximately 25 mL of the middle layer was transferred into a 50 mL Falcon tube using a plastic pipette. After shaking the homogenate, the homogenate was dispensed into ten 2 mL Eppendorf tubes, and stored at -35 °C until use. The protein content of the homogenate was determined to be 18.24 mg/mL using the Pierce Modified Lowry Protein Assay method. Just before use, the homogenate was diluted to a protein concentration of 0.6 mg/mL (i.e. 300 µg / 500 µl) by the addition of 29.4 mL of KH buffer to 1000 µl of the homogenate.
The kidneys (1.4143 g) were collected from four C57BL/6 mice after cervical dislocation. After cleaning and rinsing the organs using ice-cold KH buffer, the kidneys were cut in little pieces and transferred into a 50 mL tube to which 24 mL ice-cold KH buffer was added. The kidneys were then homogenized with mixer. After the larger particles were allowed to settle for about 30 minutes at 5 °C, approximately 10 mL of the middle layer was transferred into a 50 mL Falcon tube using a plastic pipette. After shaking the homogenate, the homogenate was dispensed into five 2 mL Eppendorf tubes, and stored at -35 °C until use. The protein content of the homogenate was determined to be 5.92 mg/mL using the Pierce Modified Lowry Protein Assay method. Just before use, the homogenate was diluted to a protein concentration of 0.6 mg/mL (i.e. 300 µg / 500 µl) by the addition of 8.87 mL of KH buffer to 1000 µl of the homogenate.
The colons (incl. caecum) (1.4174 g) were collected from four C57BL/6 mice after cervical dislocation. After cleaning and rinsing the organs using ice-cold KH buffer, the colons were cut in little pieces and transferred into a 15 mL tube to which 5 mL ice-cold KH buffer was added. The colons were then homogenized with mixer. After the larger particles were allowed to settle for about 30 minutes at 5 °C, approximately 2 mL of the middle layer was dispensed into a 2 mL Eppendorf tube, and stored at -35 °C until use. The protein content of the homogenate was determined to be 2.35 mg/mL using the Pierce Modified Lowry Protein Assay method. Just before use, the homogenate was diluted to a protein concentration of 0.6 mg/mL (i.e. 300 µg / 500 µl) by the addition of 2.92 mL of KH buffer to 1000 µl of the homogenate.
Fresh faeces (0.1810 g) was collected from four C57BL/6 mice. The faeces was then cut in little pieces and transferred into a 15 mL tube to which 5 mL ice-cold KH buffer was added. […] The protein content of the homogenate was determined to be 1.48 mg/mL using the Pierce Modified Lowry Protein Assay method. […]

human myotubes = conditions: MTT dose-response curve
Experimental: (§1) Initially, MTT concentration‐response experiments in murine and human myoblasts as well as in myotubes were performed.
(§2) The 95% confidence interval of this curve is shown as grey area. IC10 is shown as a red vertical line.

in vitro = conditions: human, Caco-2
Source text: (§3) Data are means ± SEM. […] (D–F) Data are means ± SEM. *p < .05; **p < .01; ***p < .001; two‐tailed Welch's t‐test. […] The exponent is read as -7; the minus sign and the digit are not certain. / Panel A: no compound label is printed beside the value. 'QSP' comes from the y-axis title of the same panel.
(§4) [picture] Supplementary Figure 5. […] Data are means ± SEM.Supplementary Figure 5

CaCo‐2 monolayer = test: in vitro; conditions: CaCo-2 monolayer, apical-basal, 4°C, n = 6
Source text: as §3, §4

[3] = germ-free mice inoculated with genetically modified E. coli continuously producing iAM373
Source text: as §3

C. elegans = conditions: adult worms treated once with 1 µM; n = 341, 5 independent experiments
Source text: Data presented are means ± SEM. * P < 0.05; ** P < 0.01 and *** P < 0.001; Welch’s 2-sided t-test with placebo as reference.DACBSupplementary Figure 2

C2C12 myotubes = conditions: Murine myotubes, MTT dose-response curve
Experimental: as §1, §2, §3

C2C12 myoblasts = conditions: Murine myoblasts, MTT dose-response curve
Experimental: as §1
(§5) Supplementary Figure 1. […] A) C2C12 myoblasts; B) human myoblasts. The x-axis indicates the different QSP concentrations, while the y-axis represents MTT reduction relative to placebo (placebo = 1.0). Squares (+ error bars) are means (+ SEM) of n=8-10 for each concentration, with the curve representing the best fitting 3-parameter logistic model around the means. The 95% confidence interval of this curve is shown as grey area. IC10 is shown as a red vertical line.

human myoblasts = tested on: human myoblasts
Experimental: as §1, §5

- fragment found (faeces homogenate): SIF, major
- fragment found [1]: SIFTL, major
- fragment found (liver homogenate): FTLVA, major
- fragment found (muscle homogenate): SIFTL, major
- fragment found (kidney homogenate): SIFT, major; also recorded: SIFTL, major
Substance: SIFTLVA

Substance: SIFTLVA [iAM373]
- cytotoxic or cytostatic effect in viability assays other than MTT (C2C12 myoblast): did not show a clear cytotoxic or cytostatic effect
- Main metabolite at approx. T1/2 ([2]; murine colon homogenate): SIFTL (180 min)
- Main metabolite at approx. T1/2 ([2]; murine faeces homogenate): SIF (60 min)
- Main metabolite at approx. T1/2 ([2]; murine kidney homogenate): SIFT (30 min) SIFTL (30 min)
- Main metabolite at approx. T1/2 ([2]; murine liver homogenate): FTLVA (180 min)
- Main metabolite at approx. T1/2 ([2]; murine muscle homogenate): SIFTL (180 min)
- IC50 (human myotubes): 5.4 nM
- estimated plasma concentration in iAM373-positive older residents: 453 pM
- Papp A→B (in vitro): 0.14 ×10⁻⁶ cm/s
- apical‐basal permeability coefficient (Papp) (CaCo‐2 monolayer): 0.87×10^–7 cm/s
- presence in blood circulation after oral gavage of iAM373-producing E. coli [3]: detected in the blood circulation
- effect on survival of C. elegans (C. elegans): without a clear effect on survival
- IC50 (C2C12 myotubes): 13 nM
- IC50 (C2C12 myoblasts): 61 nM
- IC50 (human myoblasts; Human myoblasts, MTT dose-response curve): 180 nM
- IC90 (human myoblasts; human myoblasts, MTT): 930 nM
